Measured values from PubChem BioAssay (NCI).
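A five-concentration, 48-hour dose response in 96-well plates underlies each endpoint, interpolated linearly between surrounding concentrations. The concentration for full growth arrest is given as TGI.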

Legend:
Assay in all cases: NCI-60 cell line screen, 48 h
A549 NSCLC = test system: A549 NSCLC
KM12 colon = test system: KM12 colon
UACC-257 melanoma = test system: UACC-257 melanoma
LOX IMVI melanoma = test system: LOX IMVI melanoma
HCT-15 colon = test system: HCT-15 colon
DMS 114 small cell lung = test system: DMS 114 small cell lung
SK-MEL-5 melanoma = test system: SK-MEL-5 melanoma
SNB-19 CNS = test system: SNB-19 CNS
ACHN renal = test system: ACHN renal
SN12C renal = test system: SN12C renal
DMS 273 small cell lung = test system: DMS 273 small cell lung
NCI-H23 lung = test system: NCI-H23 lung
SW-620 colon = test system: SW-620 colon
SNB-78 CNS = test system: SNB-78 CNS
K-562 leukemia = test system: K-562 leukemia
NCI-H522 lung = test system: NCI-H522 lung
IGROV1 ovarian = test system: IGROV1 ovarian
SK-MEL-2 melanoma = test system: SK-MEL-2 melanoma
HCC-2998 colon = test system: HCC-2998 colon
NCI-H460 lung = test system: NCI-H460 lung
OVCAR-3 ovarian = test system: OVCAR-3 ovarian
XF 498 CNS = test system: XF 498 CNS
OVCAR-5 ovarian = test system: OVCAR-5 ovarian
LXFL 529 NSCLC = test system: LXFL 529 NSCLC
SK-MEL-28 melanoma = test system: SK-MEL-28 melanoma
SR leukemia = test system: SR leukemia
UACC-62 melanoma = test system: UACC-62 melanoma
M14 melanoma = test system: M14 melanoma
HCT-116 colon = test system: HCT-116 colon
U251 CNS = test system: U251 CNS
HL-60(TB) leukemia = test system: HL-60(TB) leukemia
RXF 393 renal = test system: RXF 393 renal
UO-31 renal = test system: UO-31 renal
786-0 renal = test system: 786-0 renal
HT29 colon = test system: HT29 colon
OVCAR-8 ovarian = test system: OVCAR-8 ovarian
DLD-1 colon = test system: DLD-1 colon
EKVX NSCLC = test system: EKVX NSCLC
SK-OV-3 ovarian = test system: SK-OV-3 ovarian
SF-539 CNS = test system: SF-539 CNS
SF-295 CNS = test system: SF-295 CNS
SNB-75 CNS = test system: SNB-75 CNS
TK-10 renal = test system: TK-10 renal
M19-MEL melanoma = test system: M19-MEL melanoma
CCRF-CEM leukemia = test system: CCRF-CEM leukemia
OVCAR-4 ovarian = test system: OVCAR-4 ovarian
RPMI-8226 leukemia = test system: RPMI-8226 leukemia
HOP-62 NSCLC = test system: HOP-62 NSCLC
MOLT-4 leukemia = test system: MOLT-4 leukemia
COLO 205 colon = test system: COLO 205 colon
MALME-3M melanoma = test system: MALME-3M melanoma
KM20L2 colon = test system: KM20L2 colon
HOP-18 NSCLC = test system: HOP-18 NSCLC
SF-268 CNS = test system: SF-268 CNS
HOP-92 NSCLC = test system: HOP-92 NSCLC
CAKI-1 renal = test system: CAKI-1 renal
A498 renal = test system: A498 renal

## CC(C)(C)C1=Nc2c(Br)cc(C(C)(C)C)cc2C(C(F)(F)F)(C(F)(F)F)O1
A549 NSCLC
  TGI: > 100 µM
KM12 colon
  TGI: > 100 µM
UACC-257 melanoma
  TGI: > 100 µM
LOX IMVI melanoma
  TGI: 31.3 µM
HCT-15 colon
  TGI: > 100 µM
DMS 114 small cell lung
  TGI: 86.3 µM
SK-MEL-5 melanoma
  TGI: > 100 µM
SNB-19 CNS
  TGI: > 100 µM
ACHN renal
  TGI: > 100 µM
SN12C renal
  TGI: > 100 µM
DMS 273 small cell lung
  TGI: > 100 µM
NCI-H23 lung
  TGI: > 100 µM
SW-620 colon
  TGI: > 100 µM
SNB-78 CNS
  TGI: > 100 µM
K-562 leukemia
  TGI: > 100 µM
NCI-H522 lung
  TGI: > 100 µM
IGROV1 ovarian
  TGI: > 100 µM
SK-MEL-2 melanoma
  TGI: > 100 µM
HCC-2998 colon
  TGI: 65.1 µM
NCI-H460 lung
  TGI: > 100 µM
OVCAR-3 ovarian
  TGI: 37 µM
XF 498 CNS
  TGI: 59.4 µM
OVCAR-5 ovarian
  TGI: > 100 µM
LXFL 529 NSCLC
  TGI: > 100 µM
SK-MEL-28 melanoma
  TGI: > 100 µM
SR leukemia
  TGI: > 100 µM
UACC-62 melanoma
  TGI: > 100 µM
M14 melanoma
  TGI: > 100 µM
HCT-116 colon
  TGI: > 100 µM
U251 CNS
  TGI: 44.7 µM
HL-60(TB) leukemia
  TGI: 47.4 µM
RXF 393 renal
  TGI: 43.5 µM
UO-31 renal
  TGI: > 100 µM
786-0 renal
  TGI: > 100 µM
HT29 colon
  TGI: > 100 µM
OVCAR-8 ovarian
  TGI: > 100 µM
DLD-1 colon
  TGI: > 100 µM
EKVX NSCLC
  TGI: > 100 µM
SK-OV-3 ovarian
  TGI: > 100 µM
SF-539 CNS
  TGI: > 100 µM
SF-295 CNS
  TGI: > 100 µM
SNB-75 CNS
  TGI: > 100 µM
TK-10 renal
  TGI: > 100 µM
M19-MEL melanoma
  TGI: > 100 µM
CCRF-CEM leukemia
  TGI: > 100 µM
OVCAR-4 ovarian
  TGI: > 100 µM
RPMI-8226 leukemia
  TGI: 66.3 µM
HOP-62 NSCLC
  TGI: > 100 µM
MOLT-4 leukemia
  TGI: > 100 µM
COLO 205 colon
  TGI: > 100 µM
MALME-3M melanoma
  TGI: > 100 µM
KM20L2 colon
  TGI: > 100 µM

## COc1ccc(C(=O)NCCC2=CCCCC2)cc1
A549 NSCLC
  TGI: > 100 µM
KM12 colon
  TGI: > 100 µM
UACC-257 melanoma
  TGI: > 100 µM
LOX IMVI melanoma
  TGI: > 100 µM
HCT-15 colon
  TGI: > 100 µM
DMS 114 small cell lung
  TGI: > 100 µM
HOP-18 NSCLC
  TGI: > 100 µM
SK-MEL-5 melanoma
  TGI: > 100 µM
SNB-19 CNS
  TGI: > 100 µM
ACHN renal
  TGI: > 100 µM
SN12C renal
  TGI: > 100 µM
DMS 273 small cell lung
  TGI: > 100 µM
NCI-H23 lung
  TGI: > 100 µM
SW-620 colon
  TGI: > 100 µM
SNB-78 CNS
  TGI: > 100 µM
K-562 leukemia
  TGI: > 100 µM
IGROV1 ovarian
  TGI: > 100 µM
SF-268 CNS
  TGI: > 100 µM
SK-MEL-2 melanoma
  TGI: > 100 µM
NCI-H460 lung
  TGI: > 100 µM
OVCAR-3 ovarian
  TGI: > 100 µM
XF 498 CNS
  TGI: > 100 µM
OVCAR-5 ovarian
  TGI: > 100 µM
SK-MEL-28 melanoma
  TGI: > 100 µM
SR leukemia
  TGI: > 100 µM
HOP-92 NSCLC
  TGI: > 100 µM
UACC-62 melanoma
  TGI: > 100 µM
CAKI-1 renal
  TGI: > 100 µM
HCT-116 colon
  TGI: > 100 µM
U251 CNS
  TGI: > 100 µM
RXF 393 renal
  TGI: > 100 µM
786-0 renal
  TGI: > 100 µM
HT29 colon
  TGI: > 100 µM
OVCAR-8 ovarian
  TGI: > 100 µM
DLD-1 colon
  TGI: > 100 µM
EKVX NSCLC
  TGI: > 100 µM
SF-539 CNS
  TGI: > 100 µM
SF-295 CNS
  TGI: > 100 µM
SNB-75 CNS
  TGI: > 100 µM
TK-10 renal
  TGI: > 100 µM
M19-MEL melanoma
  TGI: > 100 µM
CCRF-CEM leukemia
  TGI: > 100 µM
OVCAR-4 ovarian
  TGI: > 100 µM
RPMI-8226 leukemia
  TGI: > 100 µM
HOP-62 NSCLC
  TGI: > 100 µM
A498 renal
  TGI: > 100 µM
COLO 205 colon
  TGI: > 100 µM
MALME-3M melanoma
  TGI: > 100 µM
KM20L2 colon
  TGI: > 100 µM
